# Species: Rattus norvegicus
# Experiment: Open TG-GATES - Regimen: Single
# Type: toxicity, organism-based, Sprague-Dawley
# Design: regimen Single, gender Male, age 6 weeks
# Details: in vivo, po, route gavage; for gamma-GTP / ALP / ALT / AST / BUN / CRE / Ca / Cl / DBIL / GLC / IP / K / LDH / Na / PL / RALB / TBIL / TG / TP: tissue Plasma; for APTT / Bas / Eos / Fbg / Hb / Ht / Lym / MCH / MCV / Mono / Neu / PT / Plat / RBC / Ret / WBC: tissue Blood; for KIDNEY_L / KIDNEY_R / KIDNEY_TOTAL: tissue Kidney; for LIVER: tissue Liver
# [1] = 100 mg/kg, 3 h, dose level Middle
# [2] = 100 mg/kg, 6 h, dose level Middle
# [3] = 100 mg/kg, 9 h, dose level Middle
# [4] = 100 mg/kg, 24 h, dose level Middle
compound,measurement,setting,value
NC(=O)N1c2ccccc2C=Cc2ccccc21 [CARBAMAZEPINE],gamma-GTP,"30 mg/kg, 24 h, dose level Low",0.8 IU/L
same,TERMINAL_BW,[1],216.3 g
same,APTT,[1],19.3 s
same,Bas,[1],0%
same,Eos,[1],1.2%
same,Fbg,[1],209.4 mg/dL
same,Hb,[1],13.2 g/dL
same,Ht,[1],38.8%
same,Lym,[1],77.4%
same,MCH,[1],21.3 pg
same,MCV,[1],62.7 fL
same,Mono,[1],2.8%
same,Neu,[1],17.2%
same,PT,[1],12.4 s
same,Plat,[1],121.8 x10_4/uL
same,RBC,[1],619 x10_4/ul
same,Ret,[1],7.2%
same,WBC,[1],96 x10_2/uL
same,KIDNEY_L,[1],0.9 g
same,KIDNEY_R,[1],0.9 g
same,KIDNEY_TOTAL,[1],1.9 g
same,LIVER,[1],9.8 g
same,ALP,[1],792.4 IU/L
same,ALT,[1],35.8 IU/L
same,AST,[1],63.8 IU/L
same,BUN,[1],9.2 mg/dL
same,CRE,[1],0.4 mg/dL
same,Ca,[1],10.4 mg/dL
same,Cl,[1],102 meq/L
same,DBIL,[1],0.076 mg/dL
same,GLC,[1],190 mg/dL
same,IP,[1],9.9 mg/dL
same,K,[1],3.8 meq/L
same,LDH,[1],202 IU/L
same,Na,[1],140.6 meq/L
same,PL,[1],152.4 mg/dL
same,RALB,[1],3.3 g/dL
same,TBIL,[1],0.1 mg/dL
same,TG,[1],62 mg/dL
same,TP,[1],5.5 g/dL
same,gamma-GTP,[1],1 IU/L
same,TERMINAL_BW,[2],210.4 g
same,APTT,[2],20.3 s
same,Bas,[2],0%
same,Eos,[2],1%
same,Fbg,[2],210 mg/dL
same,Hb,[2],13.2 g/dL
same,Ht,[2],38.7%
same,Lym,[2],80.4%
same,MCH,[2],20.8 pg
same,MCV,[2],61.1 fL
same,Mono,[2],2.6%
same,Neu,[2],14.8%
same,PT,[2],12.8 s
same,Plat,[2],121.9 x10_4/uL
same,RBC,[2],633.2 x10_4/ul
same,Ret,[2],6.5%
same,WBC,[2],95.7 x10_2/uL
same,KIDNEY_L,[2],0.9 g
same,KIDNEY_R,[2],0.9 g
same,KIDNEY_TOTAL,[2],1.8 g
same,LIVER,[2],9.1 g
same,ALP,[2],803.4 IU/L
same,ALT,[2],30.8 IU/L
same,AST,[2],60.4 IU/L
same,BUN,[2],9.4 mg/dL
same,CRE,[2],0.4 mg/dL
same,Ca,[2],10.6 mg/dL
same,Cl,[2],102.4 meq/L
same,DBIL,[2],0.084 mg/dL
same,GLC,[2],190.6 mg/dL
same,IP,[2],9.4 mg/dL
same,K,[2],3.8 meq/L
same,LDH,[2],175.2 IU/L
same,Na,[2],140.8 meq/L
same,PL,[2],142 mg/dL
same,RALB,[2],3.4 g/dL
same,TBIL,[2],0.1 mg/dL
same,TG,[2],58.4 mg/dL
same,TP,[2],5.6 g/dL
same,gamma-GTP,[2],0.6 IU/L
same,TERMINAL_BW,[3],211 g
same,APTT,[3],18.6 s
same,Bas,[3],0%
same,Eos,[3],1%
same,Fbg,[3],204.6 mg/dL
same,Hb,[3],13.3 g/dL
same,Ht,[3],38.7%
same,Lym,[3],81.4%
same,MCH,[3],21.3 pg
same,MCV,[3],61.9 fL
same,Mono,[3],2.4%
same,Neu,[3],14.8%
same,PT,[3],13.2 s
same,Plat,[3],120.7 x10_4/uL
same,RBC,[3],625.2 x10_4/ul
same,Ret,[3],6.4%
same,WBC,[3],91.7 x10_2/uL
same,KIDNEY_L,[3],1 g
same,KIDNEY_R,[3],1 g
same,KIDNEY_TOTAL,[3],2 g
same,LIVER,[3],8.6 g
same,ALP,[3],828.4 IU/L
same,ALT,[3],25.2 IU/L
same,AST,[3],57.6 IU/L
same,BUN,[3],9.6 mg/dL
same,CRE,[3],0.3 mg/dL
same,Ca,[3],10.3 mg/dL
same,Cl,[3],101.6 meq/L
same,DBIL,[3],0.064 mg/dL
same,GLC,[3],197 mg/dL
same,IP,[3],10.1 mg/dL
same,K,[3],3.7 meq/L
same,LDH,[3],176.2 IU/L
same,Na,[3],140.2 meq/L
same,PL,[3],133.2 mg/dL
same,RALB,[3],3.4 g/dL
same,TBIL,[3],0.1 mg/dL
same,TG,[3],45.6 mg/dL
same,TP,[3],5.4 g/dL
same,gamma-GTP,[3],0.8 IU/L
same,TERMINAL_BW,[4],226.1 g
same,APTT,[4],20.2 s
same,Bas,[4],0%
same,Eos,[4],0.8%
same,Fbg,[4],211.6 mg/dL
same,Hb,[4],13.3 g/dL
same,Ht,[4],39.4%
same,Lym,[4],80%
same,MCH,[4],21.1 pg
same,MCV,[4],62.7 fL
same,Mono,[4],2.8%
same,Neu,[4],15.6%
same,PT,[4],12.2 s
same,Plat,[4],123.8 x10_4/uL
same,RBC,[4],629 x10_4/ul
same,Ret,[4],5.9%
same,WBC,[4],88.7 x10_2/uL
same,KIDNEY_L,[4],1 g
same,KIDNEY_R,[4],1.1 g
same,KIDNEY_TOTAL,[4],2.1 g
same,LIVER,[4],11.4 g
same,ALP,[4],820.6 IU/L
same,ALT,[4],33.8 IU/L
same,AST,[4],66.4 IU/L
same,BUN,[4],18.4 mg/dL
same,CRE,[4],0.4 mg/dL
same,Ca,[4],10.6 mg/dL
same,Cl,[4],103.2 meq/L
same,DBIL,[4],0.1 mg/dL
same,GLC,[4],199 mg/dL
same,IP,[4],7.4 mg/dL
same,K,[4],4.3 meq/L
same,LDH,[4],215 IU/L
same,Na,[4],140.2 meq/L
same,PL,[4],147 mg/dL
same,RALB,[4],3.3 g/dL
same,TBIL,[4],0.2 mg/dL
same,TP,[4],5.5 g/dL
same,gamma-GTP,[4],1 IU/L

# — ChEMBL document CHEMBL3885861, “Open TG-GATES”
